Among the data in PubChem BioAssay (NCI) are TGI and GI50 values, retold here.

Test systems include KM12 colon; ACHN renal; MALME-3M melanoma; MOLT-4 leukemia; RXF 393 renal; SNB-19 CNS; SR leukemia; SK-OV-3 ovarian; CAKI-1 renal; HOP-92 NSCLC.
What all share (test): inhibition of tumour cell growth, NCI panel, 48 h

Each structure is given as a SMILES string.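 Growth conditions: 96-well plates. Treatment: test compound, 48 hours, 5 concentrations. Analysis: linear interpolation between bracketing concentrations; unreached endpoints set to highest concentration. At the GI50, growth is halved. TGI: concentration producing complete growth inhibition.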

In the case of `COc1cccc(-c2cc(=O)c3ccccc3[nH]2)c1`, the TGI in the test on KM12 colon was above 48.4 µM; with ACHN renal, above 100 µM; in the test on MALME-3M melanoma it was above 100 µM; in the test with MOLT-4 leukemia, above 100 µM; in the test on RXF 393 renal it was 21 µM; with SNB-19 CNS, above 100 µM. In addition, the TGI in the test with SR leukemia and in the test on SK-OV-3 ovarian was above 100 µM throughout.

`CCSc1c2ccccc2c(-c2nc(F)nc(F)n2)n1CCc1ccccc1`: the TGI in the test on KM12 colon, with ACHN renal, in the test on CAKI-1 renal, in the test on MALME-3M melanoma, with MOLT-4 leukemia and in the test on HOP-92 NSCLC was above 100 µM in each case. Also, the TGI in the test on RXF 393 renal, in the test on SNB-19 CNS and in the test with SR leukemia was above 100 µM throughout.

For `O=C(COc1cccc(/C=C2\CSc3ccccc3C2=O)c1)Nc1nccs1`, the GI50 in the test on KM12 colon was 1.53 µM; in the test with ACHN renal, 2.66 µM; in the test with CAKI-1 renal, 1.72 µM; in the test on MALME-3M melanoma, 1.54 µM; in the test on SNB-19 CNS it was 6.48 µM; in the test with SR leukemia it was 0.557 µM. In addition, in the test with SK-OV-3 ovarian, the GI50 was 14.6 µM. The TGI in the test with KM12 colon was found to be 2.86 µM; in the test on ACHN renal, 7.96 µM; in the test on CAKI-1 renal, 6.33 µM; with MALME-3M melanoma, 3.11 µM; in the test on SNB-19 CNS, 19.6 µM; with SR leukemia, 2.44 µM. Besides, in the test with SK-OV-3 ovarian, the TGI amounted to 27.7 µM.

For `CCn1c(-c2nonc2N)nc2cncc(C(=O)N3CC[C@H](N)C3)c21`, the GI50 with KM12 colon is above 25 µM; in the test with ACHN renal, above 25 µM; with CAKI-1 renal, 2.35 µM; in the test on MALME-3M melanoma, above 25 µM; in the test with MOLT-4 leukemia, above 25 µM; in the test on RXF 393 renal, above 6.57 µM. The GI50 in the test with SNB-19 CNS was above 25 µM; in the test with SR leukemia it was 2.01 µM; in the test with SK-OV-3 ovarian, above 25 µM. Further, the TGI in the test on KM12 colon, in the test on ACHN renal, with CAKI-1 renal, in the test on MALME-3M melanoma, in the test on MOLT-4 leukemia and in the test with RXF 393 renal was above 25 µM throughout. In addition, the TGI in the test on SNB-19 CNS, in the test with SR leukemia and with SK-OV-3 ovarian was above 25 µM throughout.

As to `CC[n+]1c(/C=C/C=C2\N(C)c3ccccc3C2(C)C)sc2ccccc21`, the GI50 with KM12 colon was 4.46 µM; with ACHN renal, 4.1 µM; in the test on MALME-3M melanoma it was 4.28 µM; in the test with MOLT-4 leukemia, 4.44 µM; in the test on HOP-92 NSCLC, 3.54 µM; in the test on RXF 393 renal, 4.33 µM. Besides, the GI50 is 4.1 µM with SNB-19 CNS, 3.32 µM with SR leukemia and 5.71 µM in the test on SK-OV-3 ovarian. In addition, the TGI is 8.7 µM with KM12 colon; 8.21 µM in the test with ACHN renal; 8.1 µM with MALME-3M melanoma; 11.6 µM in the test on MOLT-4 leukemia; 10.8 µM with HOP-92 NSCLC; 10.3 µM in the test with RXF 393 renal. The TGI was 7.8 µM in the test on SNB-19 CNS, 9.32 µM with SR leukemia and 13.9 µM with SK-OV-3 ovarian.

In the case of `O=S(=O)(c1cnccc1N1CCN(CCO)CC1)N1CCCC1`, the TGI in the test with KM12 colon, in the test on ACHN renal, with CAKI-1 renal, with MALME-3M melanoma, in the test on HOP-92 NSCLC and in the test with RXF 393 renal was above 100 µM in each case. The TGI in the test on SNB-19 CNS, with SR leukemia and in the test with SK-OV-3 ovarian was above 100 µM each time.

Take `NC(=O)NC1C(C(N)=O)N(Cc2ccccc2)C(=O)N1Cc1ccccc1` (stereo unspecified): the TGI with KM12 colon, in the test with ACHN renal, in the test with CAKI-1 renal, in the test on MALME-3M melanoma, with MOLT-4 leukemia and in the test with HOP-92 NSCLC was above 100 µM throughout. Besides, the TGI in the test with SNB-19 CNS, with SR leukemia and in the test with SK-OV-3 ovarian was above 100 µM in each case.

For `CN1CSC(=S)N(Cc2ccccc2)C1`, the GI50 was 1.87 µM in the test on KM12 colon; 14.1 µM with ACHN renal; 34.6 µM in the test with CAKI-1 renal; 15.4 µM in the test on MALME-3M melanoma; 11.2 µM with MOLT-4 leukemia; 11.7 µM in the test with RXF 393 renal. Further, the GI50 is 77.1 µM with SNB-19 CNS, 2.11 µM with SR leukemia and above 100 µM in the test on SK-OV-3 ovarian. Further, the TGI was 4.19 µM with KM12 colon; 27.1 µM in the test with ACHN renal; above 100 µM in the test on CAKI-1 renal; 37.4 µM in the test on MALME-3M melanoma; above 100 µM with MOLT-4 leukemia; 24 µM in the test on RXF 393 renal. Also, the TGI in the test on SNB-19 CNS, with SR leukemia and in the test on SK-OV-3 ovarian was above 100 µM throughout.

As to `C=C1C(=O)OC2/C=C(/C)C(OC(C)=O)C/C=C(\C)C(OC(=O)C3(C)OC3C)C(O)C12` (stereo unspecified), the TGI in the test on KM12 colon, in the test with ACHN renal, with CAKI-1 renal, with MOLT-4 leukemia, in the test on HOP-92 NSCLC and in the test with RXF 393 renal was above 100 µM in each case. Also, the TGI in the test with SNB-19 CNS, in the test with SR leukemia and in the test with SK-OV-3 ovarian was above 100 µM throughout.

For `COc1ccc(N=N/C(C(=O)C(F)(F)F)=C(\O)c2ccc(Cl)cc2)cc1`, the GI50 with KM12 colon is 2.61 µM; with ACHN renal, 6.53 µM; in the test on CAKI-1 renal, 3.97 µM; in the test with MALME-3M melanoma, 16.1 µM; in the test with MOLT-4 leukemia it was 5.09 µM; in the test with RXF 393 renal, 12.3 µM. The GI50 was 16.5 µM in the test on SNB-19 CNS, 4.26 µM in the test with SR leukemia and 14.4 µM with SK-OV-3 ovarian. Moreover, the TGI with KM12 colon is 38.7 µM; in the test with ACHN renal it was above 100 µM; in the test with CAKI-1 renal, 25.5 µM; in the test on MALME-3M melanoma, 85.6 µM; in the test with MOLT-4 leukemia it was 53 µM; with RXF 393 renal, 45 µM. The TGI is above 100 µM in the test on SNB-19 CNS, 24.7 µM in the test with SR leukemia and 35.3 µM in the test with SK-OV-3 ovarian.

Consider `CN(C)CCNC(=O)c1cccc2c1Oc1c(cccc1[N+](=O)[O-])O2`, for which the TGI in the test on KM12 colon is 3.46 µM; in the test on CAKI-1 renal, 1.16 µM; with MALME-3M melanoma it was 3.88 µM; in the test on MOLT-4 leukemia, 2.27 µM; in the test on RXF 393 renal, 4.94 µM; in the test with SR leukemia, 15.6 µM.
